One data set has as its target T1, RORα (Homo sapiens, UniProt P35398).
T1 construct: endogenous in cells; host or cells: Huh-7 (Huh7) human hepatocellular carcinoma cells
T1 sequence (P35398 1-523): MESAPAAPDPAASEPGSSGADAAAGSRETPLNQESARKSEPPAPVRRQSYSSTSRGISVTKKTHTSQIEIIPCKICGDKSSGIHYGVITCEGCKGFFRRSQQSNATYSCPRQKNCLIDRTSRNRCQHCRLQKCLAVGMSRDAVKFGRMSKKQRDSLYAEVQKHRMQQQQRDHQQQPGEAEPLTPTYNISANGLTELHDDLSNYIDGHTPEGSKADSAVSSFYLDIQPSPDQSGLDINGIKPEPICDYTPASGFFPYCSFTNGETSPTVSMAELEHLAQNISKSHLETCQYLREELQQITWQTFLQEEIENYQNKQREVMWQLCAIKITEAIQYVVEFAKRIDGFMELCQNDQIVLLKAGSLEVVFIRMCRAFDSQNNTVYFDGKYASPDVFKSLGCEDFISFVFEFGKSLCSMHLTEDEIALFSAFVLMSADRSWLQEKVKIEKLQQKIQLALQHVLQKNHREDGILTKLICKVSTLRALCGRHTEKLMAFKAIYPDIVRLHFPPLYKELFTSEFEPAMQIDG
The data set is described as follows: RORα activity by luciferase reporter (miR-122 promoter) in Huh-7 cells. The data set is classed as cell-based. The protocol:
Huh-7 cells were transfected with a luciferase reporter plasmid containing the miR-122 promoter (extends to −900 from the transcription start site) with intact wild-type (WT) RORα response element (RORE) or mutated RORE (mut). The cells were treated with Compound 1 one day (24 hours) post-transfection at the indicated concentrations. Luciferase expression was measured after 24 hours of treatment and normalized to Renilla Luciferase activity expressed from a co-transfected pRL plasmid. The pRL Vector, which provides constitutive expression of Renilla luciferase, was used in combination with a firefly luciferase vector to co-transfect cells. Expression of Renilla luciferase provides an internal control value to which expression of the experimental firefly luciferase reporter gene may be normalized.
Luciferase assay. For Luciferase assays, cells grown in 24 well plates were co-transfected with a luciferase reporter plasmid (50 ng) and 1 ng of Renilla Luciferase vector (PRL, Promega) using the TransIT-LT 1 (Mirus) transfection reagent (MIR 2300, Madison, WI). Firefly and Renilla luciferase activity was assessed using the Dual Luciferase Reporter Assay system (Promega). Readings were taken in triplicates on a Mithras LB 940 Luminometer (Berthold Technologies). […]
Following transfections, the cells were lysed with passive lysis buffer (Cat #E1941; Promega), shaking for 20 min at RT and transferred into appropriate 96-well plate. Firefly and Renilla luciferase activity was assessed using the Dual Luciferase Reporter Assay system (Cat #E1910; Promega) on a luminometer Mithras 2000 (Centro XZ, LB960, Berthold Technologies, Bad Wildbad, Germany). […] Readings were taken in triplicate.
Following transfections, the cells were lysed with passive lysis buffer (Cat #E1941; Promega), shaking for 20 min at room temperature (RT) and transferred into the appropriate 96-well plate. Firefly and Renilla luciferase activity was assessed using the Dual Luciferase Reporter Assay system (Cat #E1910; Promega) on a luminometer Mithras 2000 (Centro XZ, LB960, Berthold Technologies, Bad Wildbad, Germany). […] Readings were taken in triplicates. […]
After transfections, the cells were lysed with passive lysis buffer (catalog no. E1941, Promega), shaken for 20 minutes at room temperature, and transferred into the appropriate 96-well plate. Firefly and Renilla luciferase activity was assessed using the Dual Luciferase Reporter Assay system (catalog no. E1910, Promega) on a luminometer Mithras 2000 (Centro XZ, LB960; Berthold Technologies, Bad Wildbad, Germany). […] Readings were taken in triplicate.
(A reporter such as luciferase makes a cellular process visible.)

The next data set deals with CD4^+ Th17 cells. In words: Modulation of Th17 populations in human PBMCs (flow cytometry). The data set is classed as cell-based. The settings on record: 10 μM, 3 day assay. On the procedure:
Human peripheral blood mononuclear cells (PBMCs) were isolated from four healthy donors. Four experiments were conducted and analyzed by flow cytometry over 3 day assay. The control group had no drug treatment, a second were treated with 10 μM Compound 1, a third group was stimulated with PHA/IL-2 without treatment, and the fourth group was stimulated with PHA/IL-2 and incubated with 10 μM Compound 1. […] Further, Compound 1 has no effect on Th17 populations in the absence of PHA/IL-2 stimulation.

Entries after “also recorded” stand apart in the source; their conditions may differ.

As for `O=C1Nc2cc(C(=O)N3CCC(Cc4ccccc4)CC3)ccc2Nc2ccccc21` [Compound 1], the “Induction of MIR122 promoter, compared with screened set and SR1078” value on RORα (Huh7, overnight, 1 μM tested compounds, 10 μM SR1078) is on record as “most potent”. The “Luciferase expression from miR-122 promoter with mutated RORE” value on RORα (Huh-7, mutated RORE) is on record as “negates activity; also recorded: no activity; also recorded: no induction”. In addition, the “Luciferase expression from miR-122 promoter with WT RORE” value on RORα (Huh-7, wild-type RORE, 24 hours of treatment) is “dose-dependent increase; also recorded: induces expression of RORα-regulated luciferase; also recorded: increase expression of MIR122 promoter activity”. The “Th17 total population in the presence of PHA/IL-2 stimulation” value in the data set with CD4^+ Th17 cells (relative to vehicle-control) is listed as “decreases the CD4^+ Th17 population”. Further, the “Total viability of CD4^+ T cells” value in the data set on CD4^+ Th17 cells (with or without PHA/IL-2) is listed as “no effect”.

These data come from US20250339445A1, “Modulators of Orphan Nuclear Receptors for Treating Pancreatitis, Glioblastoma, Sarcopenia and Stroke” (Emory University, priority 2020, published 2025).
